# According to patent US20050026949A1, “Methods of therapeutic treatment using amounts of retinoids without regard to body weight” (Allergan, Inc., priority 2003, published 2005):
# How the values were obtained:
# RXRs = assay: Activation of RXRs; assay type: cell-based
# RARs = assay: Activation of RARs; assay type: cell-based
# [1] = oral, cited from earlier work; for bioavailability in the presence of food: Colburn et al
# [2] = cited from earlier work
# [3] = in vivo; cited from earlier work
# [4] = system: patients in the studies of acitretin; conditions: published data (N = 525); cited from earlier work
# [5] = system: patients in the studies of isotretinoin; conditions: published data (N = 525); cited from earlier work
# sebaceous glands = conditions: published reports (Geiger); cited from earlier work
# [6] = Food effect on pharmacokinetics of tazarotenic acid after oral tazarotene (Example 1); assay type: in vivo, human; conditions: 6.3 mg oral tazarotene
# Protocol: For the purposes of this application, the bioavailability of a drug may be based on the human pharmokinetic parameters of maximum blood concentration (Cmax) and Area under the blood concentration-time curve (AUC).
# (§1) The LC-MS/MS test for simultaneous detection of tazarotene and tazarotenic acid may be run as follows. One ml of plasma (EDTA-treated) is diluted with 1.0 ml of water. Diluted plasma is extracted using solid phase extraction (SPE) on a C18 cartridge. The eluate is evaporated, reconstituted in a water/methanol-based mobile phase, and injected onto a 4.6×50 mm, 3 μm pore size C-8 reverse phase high pressure liquid chromatography (HPLC) column (Agilent, Wilmington, Del.). Compounds are gradient-eluted at 1.2 mL/min and detected using an API 3000 triple quadrupole mass spectrometer with an Atmospheric Pressure Chemical Ionization (APCI) source (PE-Sciex, Concord, Ontario, Canada). Molecular reaction monitoring enhances the sensitivity and selectivity of this assay by collisionally dissociating the protonated molecules for the analyte and an internal standard thereby forming the product ions. The specific precursor-product ion pair monitored are m/z 352→324 for tazarotene, m/z 359→331 for the tazarotene internal standard, m/z 324→294 for tazarotenic acid, and m/z 331+298 for the tazarotenic acid internal standard. The lower limit of quantitation at assay range tested is 0.1 ng/mL, with a coefficient of variation and deviation from nominal concentration of <15%.
# RAR-A = target: T1, RAR-A (Homo sapiens, UniProt P10276); assay: RAR-alpha activity; assay type: cell-based
# T1 sequence (P10276 1-462): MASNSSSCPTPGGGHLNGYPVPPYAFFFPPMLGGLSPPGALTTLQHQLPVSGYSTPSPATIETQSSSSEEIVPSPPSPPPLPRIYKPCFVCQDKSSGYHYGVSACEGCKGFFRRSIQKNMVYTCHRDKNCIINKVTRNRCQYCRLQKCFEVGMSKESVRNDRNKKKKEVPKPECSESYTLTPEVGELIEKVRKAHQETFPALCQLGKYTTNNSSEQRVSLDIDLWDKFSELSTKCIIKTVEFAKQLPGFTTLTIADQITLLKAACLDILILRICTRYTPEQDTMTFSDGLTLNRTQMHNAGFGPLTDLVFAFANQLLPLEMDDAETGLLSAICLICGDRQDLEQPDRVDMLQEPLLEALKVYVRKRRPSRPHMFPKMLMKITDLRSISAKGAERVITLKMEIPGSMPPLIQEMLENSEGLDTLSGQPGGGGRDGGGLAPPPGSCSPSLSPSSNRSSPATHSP
# [7] = Body weight effect on plasma tazarotenic acid Cmax and AUC (Example 7); assay type: in vivo, human; conditions: 6 mg tazarotene daily, day 9
# Protocol: as §1, with “<15%. […]” for “<15%.”
# [8] = topical administration of tazarotene; cited from earlier work
smiles,measurement,setting,value
CC1(C)CC[S+]([O-])c2ccc(C#Cc3ccc(C(=O)O)cn3)cc21 (stereo not drawn) [AGN 190844],activation of RXRs,RXRs,does not activate
same,activation of RARs,RARs,does not activate
"COc1cc(C)c(/C=C/C(C)=C/C=C/C(C)=C/C(=O)O)c(C)c1C [Acitretin, acitretin]",bioavailability in the presence of food,[1],bioavailability is increased in the presence of food
same,effect on contraceptive effect of microdosed progestin preparations,[2]; in vivo,interferes with the contraceptive effect
same,bioavailability in relation to body weight,[3],increased with a reduced body weight
same,Alopecia,[4],319 (60.8) NUMBER OF (%) OF PATIENTS
same,Arthralgia,[4],102 (19.4) NUMBER OF (%) OF PATIENTS
same,Atrophy of skin,[4],64 (12.2) NUMBER OF (%) OF PATIENTS
same,Back pain,[4],41 (7.8) NUMBER OF (%) OF PATIENTS
same,Cheilitis,[4],429 (81.7) NUMBER OF (%) OF PATIENTS
same,Dry Skin,[4],174 (33.1) NUMBER OF (%) OF PATIENTS
same,Dry mouth/Oral dryness,[4],76 (14.5) NUMBER OF (%) OF PATIENTS
same,Epistaxis,[4],61 (11.6) NUMBER OF (%) OF PATIENTS
same,Erythematous rash/Erythema,[4],57 (10.9) NUMBER OF (%) OF PATIENTS
same,Hyperesthesia,[4],66 (12.6) NUMBER OF (%) OF PATIENTS
same,Nail Disorder,[4],170 (32.4) NUMBER OF (%) OF PATIENTS
same,Paresthesia,[4],56 (10.7) NUMBER OF (%) OF PATIENTS
same,Paronychia/Nail disorder,[4],66 (12.6) NUMBER OF (%) OF PATIENTS
same,Pruritus,[4],157 (29.9) NUMBER OF (%) OF PATIENTS
same,Rhinitis,[4],153 (29.1) NUMBER OF (%) OF PATIENTS
same,Rigors/Chills,[4],67 (12.8) NUMBER OF (%) OF PATIENTS
same,Skin peeling/Desquamation,[4],345 (65.7) NUMBER OF (%) OF PATIENTS
same,Sticky skin/Skin disorder,[4],129 (24.6) NUMBER OF (%) OF PATIENTS
same,Xerophthalmia/Eye disorder,[4],112 (21.3) NUMBER OF (%) OF PATIENTS
"CC1=C(/C=C/C(C)=C/C=C/C(C)=C\C(=O)O)C(C)(C)CCC1 [Isotretinoin, isotretinoin]",bioavailability in the presence of food,[1],bioavailability is increased in the presence of food
same,total dose needed to reach the same peak blood concentration in the fasted state as following a high fat meal,[1],more than doubled
same,Cheilitis,[5],472 (90.2) NUMBER OF (%) OF PATIENTS
same,Conjunctivitis,[5],201 (38.4) NUMBER OF (%) OF PATIENTS
same,Desquamation central face/Desquamation,[5],187 (35.8) NUMBER OF (%) OF PATIENTS
same,Dry Skin,[5],172 (32.9) NUMBER OF (%) OF PATIENTS
same,Dry nose,[5],136 (26.0) NUMBER OF (%) OF PATIENTS
same,Epistaxis,[5],121 (23.1) NUMBER OF (%) OF PATIENTS
same,Fingertip peeling/Desquamation,[5],63 (12.0) NUMBER OF (%) OF PATIENTS
same,Headache,[5],44 (8.4) NUMBER OF (%) OF PATIENTS
same,Irritation of eyes,[5],85 (16.3) NUMBER OF (%) OF PATIENTS
same,Pruritus,[5],127 (24.3) NUMBER OF (%) OF PATIENTS
same,Red Scaly face/Desquamation,[5],54 (10.3) NUMBER OF (%) OF PATIENTS
same,Skin fragility/Skin disorder,[5],164 (31.4) NUMBER OF (%) OF PATIENTS
same,effect on blood concentrations of coadministered contraceptive components,[2]; coadministered contraceptive tablets,decreases blood concentrations of both ethinyl estradiol and norethindrone
same,decrease in sebum secretion rate,sebaceous glands,about 90%
same,bioavailability in relation to body weight,[3],increased with a reduced body weight
C=C(c1ccc(C(=O)O)cc1)c1cc2c(cc1C)C(C)(C)CCC2(C)C [bexarotene],bioavailability in the presence of food,[1],bioavailability is increased in the presence of food
same,effect on plasma concentration of coadministered tamoxifen,[2]; coadministration with tamoxifen,reduced plasma concentration of tamoxifen
CCOC(=O)/C=C(C)/C=C/C=C(C)/C=C/c1c(C)cc(OC)c(C)c1C [etretinate],bioavailability in relation to body weight,[3],increased with a reduced body weight
CC1(C)CCSc2ccc(C#Cc3ccc(C(=O)O)cn3)cc21 [tazarotenic acid],90% CI ratio of Cmax values,[6]; fed vs fasted,partially outside the 80-125% boundary
same,90% confidence intervals of AUC ratios (test/reference),[6]; fed vs fasted,completely within the 80-125% boundary
same,average ratio of Cmax (test/reference),"[6]; fed vs fasted, Day 0",1.00
same,average ratio of Cmax (test/reference),"[6]; fed vs fasted, Day 9",0.829
same,effect of high-fat meal on bioavailability or pharmacokinetics of tazarotenic acid,"[6]; within 30 minutes after high fat breakfast vs after 8-10 hour fast, single and multiple dose, healthy subjects",does not substantially affect
same,activation of RXRs,RXRs,does not activate
same,RAR-A activity,RAR-A,minimal
same,receptor specificity and selectivity,RARs,specificity for the RARs and selectivity for RAR-β and RAR-γ
same,correlation of Cmax or AUC with body weight,[7],no correlation between either Cmax or AUC and body weight
same,maximum blood concentration of tazarotenic acid,[8],less than 30 ng/ml
